In ChEMBL document CHEMBL1201862, “PubChem BioAssay data set” (2004):
The source made the active and inactive calls.

Assays:
Cytochrome P450 2C9 = Cytochrome P450 2C9 (Homo sapiens, UniProt P11712)
Cytochrome P450 1A2 = biological target: T1, Cytochrome P450 1A2 (Homo sapiens, UniProt P05177);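 also: PubChem cytochrome P450 panel assay, CYP1A2 panel member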
T1 sequence (P05177 whole entry): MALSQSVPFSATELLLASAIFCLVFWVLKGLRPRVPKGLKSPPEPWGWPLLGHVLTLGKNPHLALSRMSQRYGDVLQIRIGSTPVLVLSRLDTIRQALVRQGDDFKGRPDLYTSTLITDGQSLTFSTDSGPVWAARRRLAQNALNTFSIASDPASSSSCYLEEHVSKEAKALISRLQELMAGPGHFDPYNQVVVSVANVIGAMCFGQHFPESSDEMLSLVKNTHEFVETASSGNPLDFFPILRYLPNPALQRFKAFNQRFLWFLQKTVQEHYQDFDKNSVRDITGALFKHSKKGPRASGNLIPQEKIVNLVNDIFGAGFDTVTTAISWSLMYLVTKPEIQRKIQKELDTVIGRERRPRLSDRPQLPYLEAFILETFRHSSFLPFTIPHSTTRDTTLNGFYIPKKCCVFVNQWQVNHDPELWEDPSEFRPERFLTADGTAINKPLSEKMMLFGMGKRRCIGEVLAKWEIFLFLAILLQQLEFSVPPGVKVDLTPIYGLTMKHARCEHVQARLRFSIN

Cytochrome P450 2C19 = Cytochrome P450 2C19 (Homo sapiens, UniProt P33261); experiment: Cytochrome panel assay with activity outcomes. Panel member name: p450-cyp2c19 Compounds with AC50 equal or less than 10 uM are considered active; format: functional; conditions: read-out: AC50
[1] = viability of uninfected HEp-2 cells – cell-based, HTS, cytotoxicity control for RSV inhibitor project, dose response (AID 2410); format: functional; conditions: human respiratory syncytial virus
Cytochrome P450 2D6 = Cytochrome P450 2D6 (Homo sapiens, UniProt P10635);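 also: CYP2D6 member of a cytochrome P450 panel assay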
[2] = biological target: T2, Corticotropin-releasing factor receptor 2/Corticotropin-releasing factor-binding protein (Homo sapiens, UniProt P24387+Q13324); experiment: activators of CRF receptor 2 with binding protein – uHTS hits, confirmation (AID 602473); format: functional; conditions: read-out: EC50_Mean
T2 sequence (Q13324 whole entry): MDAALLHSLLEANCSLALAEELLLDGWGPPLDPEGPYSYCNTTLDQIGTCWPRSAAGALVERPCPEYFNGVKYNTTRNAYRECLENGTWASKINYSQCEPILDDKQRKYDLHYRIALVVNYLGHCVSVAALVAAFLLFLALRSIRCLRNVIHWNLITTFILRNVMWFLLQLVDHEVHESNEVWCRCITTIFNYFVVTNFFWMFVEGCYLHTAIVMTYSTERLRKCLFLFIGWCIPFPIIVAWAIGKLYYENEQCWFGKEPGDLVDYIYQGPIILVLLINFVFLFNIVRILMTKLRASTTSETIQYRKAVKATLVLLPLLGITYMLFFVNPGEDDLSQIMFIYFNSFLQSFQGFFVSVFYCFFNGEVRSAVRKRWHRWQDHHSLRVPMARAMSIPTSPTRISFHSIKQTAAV
T2 sequence (P24387 whole entry): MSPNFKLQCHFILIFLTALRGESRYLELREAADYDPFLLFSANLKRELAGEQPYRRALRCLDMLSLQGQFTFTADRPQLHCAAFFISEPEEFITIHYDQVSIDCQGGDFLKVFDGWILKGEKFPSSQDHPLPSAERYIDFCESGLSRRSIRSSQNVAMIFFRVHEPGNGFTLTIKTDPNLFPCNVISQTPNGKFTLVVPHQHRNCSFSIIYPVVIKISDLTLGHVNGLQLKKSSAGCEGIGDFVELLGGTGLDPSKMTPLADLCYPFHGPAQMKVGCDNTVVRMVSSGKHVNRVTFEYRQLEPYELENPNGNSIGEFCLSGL

[3] = biological target: T3, Heat shock factor protein 1 (Mus musculus, UniProt P38532); experiment: enhancement of HSF1-driven luciferase signal – cell-based, NIH3T3, luminescence, dose retest, confirmation (AID 435004); format: functional;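 also: stress induced by proteasome inhibitor MG132 added 30 min after compound; luciferase reporter driven by HSF1 response element in NIH3T3 cells; actives raise luminescence as potentiators of the MG132 stress response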
T3 sequence (P38532 whole entry): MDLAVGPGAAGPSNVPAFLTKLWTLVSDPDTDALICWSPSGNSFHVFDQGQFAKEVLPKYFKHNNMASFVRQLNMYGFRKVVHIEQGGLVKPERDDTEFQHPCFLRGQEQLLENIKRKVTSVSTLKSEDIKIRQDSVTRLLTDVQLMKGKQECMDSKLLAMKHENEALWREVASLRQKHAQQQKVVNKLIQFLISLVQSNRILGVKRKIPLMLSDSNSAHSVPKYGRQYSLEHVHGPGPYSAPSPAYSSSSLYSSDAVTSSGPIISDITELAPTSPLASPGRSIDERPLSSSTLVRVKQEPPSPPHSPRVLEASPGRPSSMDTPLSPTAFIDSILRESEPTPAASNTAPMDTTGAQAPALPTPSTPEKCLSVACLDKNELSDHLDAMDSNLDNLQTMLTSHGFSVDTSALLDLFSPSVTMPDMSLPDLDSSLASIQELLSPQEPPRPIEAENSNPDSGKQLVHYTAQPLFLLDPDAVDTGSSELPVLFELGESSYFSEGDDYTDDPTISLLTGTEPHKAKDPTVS

[4] = Trypanosoma cruzi growth suppression in host cells – NIH3T3 host cells, beta-gal luminescence, confirmation (AID 2044); format: functional, cell-based;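 also: intracellular parasites grown in NIH/3T3 mouse fibroblasts as host cells; luminescent beta-galactosidase reporter signal from transgenic T. cruzi replicating inside host cells; inhibitors lower the luminescence signal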
[5] = NIH3T3 cell viability loss – ATP luminescence, mouse fibroblasts, counter-screen, dose response (AID 2010); format: functional, cell-based;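 also: cells exposed to compound for about 90 hours before reading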

Chain of Cytochrome P450 2C9 (P11712 whole entry): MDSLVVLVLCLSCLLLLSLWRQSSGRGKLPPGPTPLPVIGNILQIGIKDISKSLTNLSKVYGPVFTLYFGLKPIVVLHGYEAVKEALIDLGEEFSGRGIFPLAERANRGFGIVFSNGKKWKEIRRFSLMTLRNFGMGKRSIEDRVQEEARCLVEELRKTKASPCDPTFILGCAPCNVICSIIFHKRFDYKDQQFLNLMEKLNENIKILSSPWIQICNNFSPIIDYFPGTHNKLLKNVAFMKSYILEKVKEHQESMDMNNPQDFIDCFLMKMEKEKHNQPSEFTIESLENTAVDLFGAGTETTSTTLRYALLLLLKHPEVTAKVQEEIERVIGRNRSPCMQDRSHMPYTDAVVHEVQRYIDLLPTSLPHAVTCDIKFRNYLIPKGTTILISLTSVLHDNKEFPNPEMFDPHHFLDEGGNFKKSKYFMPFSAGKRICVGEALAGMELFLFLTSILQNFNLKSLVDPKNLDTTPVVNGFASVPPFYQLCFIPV
Chain of Cytochrome P450 2D6 (P10635 whole entry): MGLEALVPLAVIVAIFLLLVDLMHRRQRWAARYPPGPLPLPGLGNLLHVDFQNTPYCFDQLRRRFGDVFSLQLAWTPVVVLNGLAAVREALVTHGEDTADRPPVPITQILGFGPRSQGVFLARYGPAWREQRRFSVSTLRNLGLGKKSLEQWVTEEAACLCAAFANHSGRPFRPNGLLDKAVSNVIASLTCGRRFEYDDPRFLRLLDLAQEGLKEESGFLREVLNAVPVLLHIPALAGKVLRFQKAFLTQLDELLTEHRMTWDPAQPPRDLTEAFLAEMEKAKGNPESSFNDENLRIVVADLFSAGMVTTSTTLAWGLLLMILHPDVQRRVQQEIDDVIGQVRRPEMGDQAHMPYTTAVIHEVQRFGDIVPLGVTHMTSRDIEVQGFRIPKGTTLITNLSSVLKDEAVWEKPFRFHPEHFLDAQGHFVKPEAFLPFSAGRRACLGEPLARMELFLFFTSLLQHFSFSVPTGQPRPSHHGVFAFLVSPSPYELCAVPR
Chain of Cytochrome P450 2C19 (P33261 whole entry): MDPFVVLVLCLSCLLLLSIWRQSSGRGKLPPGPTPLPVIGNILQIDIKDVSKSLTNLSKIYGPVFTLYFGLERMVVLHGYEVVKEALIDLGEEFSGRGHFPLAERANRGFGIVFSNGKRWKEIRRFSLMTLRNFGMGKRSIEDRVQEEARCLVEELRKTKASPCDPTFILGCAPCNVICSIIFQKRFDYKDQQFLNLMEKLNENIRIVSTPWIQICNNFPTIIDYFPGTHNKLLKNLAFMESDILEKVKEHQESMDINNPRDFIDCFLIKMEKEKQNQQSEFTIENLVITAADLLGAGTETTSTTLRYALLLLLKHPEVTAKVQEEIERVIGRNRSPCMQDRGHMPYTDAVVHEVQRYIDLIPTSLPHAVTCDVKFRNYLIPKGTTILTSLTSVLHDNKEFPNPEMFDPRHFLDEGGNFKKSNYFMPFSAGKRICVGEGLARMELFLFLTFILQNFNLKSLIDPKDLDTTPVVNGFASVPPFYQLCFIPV

Row | Compound | AC50 (Cytochrome P450 2C9) | CC50 [1] | further results
1 | O=C(CCN1CCCCC1)c1csc2ccccc12 | 3.16 µM (inconclusive) |  | AC50 (Cytochrome P450 1A2): 3.16 µM (inconclusive)
2 | COC(=O)N1CCC[C@@]2(CCN(c3ccccn3)C2)C1 | 20 µM (inconclusive) |  | AC50 (Cytochrome P450 2C19): 39.8 µM (inconclusive)
3 | Cc1nc(SCc2ccccc2F)c2cnn(-c3ccccc3)c2n1 |  | 28.5 µM (active) | 
4 | COc1ccccc1Cn1c(=S)[nH]c2cc(C(=O)N3CCN(C)CC3)ccc2c1=O | 0.112 µM (inconclusive) |  | AC50 (Cytochrome P450 2C19): 39.8 µM (inconclusive)
5 | CCC(=O)Nc1cc(-c2nn(C)c(=O)c3ccccc23)ccc1N1CCCCC1 | 5.01 µM (inconclusive) |  | AC50 (Cytochrome P450 2D6): 11.2 µM (inconclusive); AC50 (Cytochrome P450 1A2): 28.2 µM (inconclusive)
6 | COC(=O)N1CCC2(CCCN(c3ccccn3)C2)CC1 | 31.6 µM (inconclusive) |  | AC50 (Cytochrome P450 2D6): 39.8 µM (inconclusive); AC50 (Cytochrome P450 1A2): 25.1 µM (inconclusive)
7 | O=S(=O)(O)c1cc(O)c2c(O)c(/N=N\c3cccc4ccccc34)c(S(=O)(=O)O)cc2c1 | 7.94 µM (inconclusive) |  | 
8 | N#Cc1nc(COc2ccccc2Cl)oc1N1CCCC1 |  | 41.5 µM (active) | 
9 | COc1ccccc1NC(=O)COc1ccc(Br)cc1CO |  | > 50 µM (active) | 
10 | CCOC(=O)/C(C#N)=C(C)/C=C1\Sc2ccccc2N1CC |  |  | EC50 [2]: 18.4 µM (active)
11 | CCc1ccccc1NS(=O)(=O)c1ccc(OC)c2ncccc12 |  | 16 µM (active) | 
12 | Cc1nc2ccc3nc(NC(=O)C4COc5ccccc5O4)sc3c2s1 (stereo unspecified) |  | 41.4 µM (active) | 
13 | COC(=O)COc1ccc(Oc2nc(SC)nc(N(C)C)n2)nn1 |  |  | EC50 [2]: > 53 µM (inactive)
14 | Cc1cc(C)c(S(=O)(=O)n2ccc(-c3ccc(OCCN(C)c4ccccn4)cc3)n2)c(C)c1 | 1.78 µM (inconclusive) |  | AC50 (Cytochrome P450 2C19): 0.631 µM (inconclusive); EC50 [3]: > 260 µM (inactive); AC50 (Cytochrome P450 1A2): 14.1 µM (inconclusive)
15 | CCOc1ccc(NC2c3ccccc3C(=O)N2Cc2ccc3c(c2)OCO3)cc1 (stereo unspecified) |  | 14.6 µM (active) | 
16 | CCOc1ccccc1C1CC(c2cccc(NS(C)(=O)=O)c2)=NN1C(=O)c1ccccc1 (stereo unspecified) |  | 35.5 µM (active) | 
17 | COc1ccc2c(c1)C(=O)N(c1ccccc1)C(=O)C2 | 22.4 µM (inconclusive) |  | AC50 (Cytochrome P450 1A2): 25.1 µM (inconclusive)
18 | CCCS(=O)(=O)N1CCCC(C(=O)NCCCN2CCN(c3cccc(Cl)c3)CC2)C1 (stereo unspecified) | 28.2 µM (inconclusive) |  | AC50 (Cytochrome P450 2C19): 14.1 µM (inconclusive); AC50 (Cytochrome P450 1A2): 0.00631 µM (inconclusive)
19 | CC(C)(C)NC(=O)C(c1ccncc1)N(Cc1ccc(F)cc1)C(=O)c1ccc(-c2ccccc2)[nH]1 (stereo unspecified) |  | 14.6 µM (active) | EC50 [4]: 0.681 µM (active); EC50 [5]: > 60 µM (inconclusive)
20 | COC(=O)c1cc2sc(Cl)cc2n1CC(=O)Nc1ccc(OC)c(OC)c1OC |  |  | EC50 [2]: > 53 µM (inactive)
21 | COc1ccc(C2C(C(=O)N3CCOCC3)c3ccccc3C(=O)N2c2ccc(OC)cc2)cc1 (stereo unspecified) | 0.501 µM (inconclusive) |  | 
22 | Cc1c(OCC(=O)NCc2ccccn2)ccc2c3c(c(=O)oc12)CCCC3 |  | 21.2 µM (active) | 
23 | COc1ccc2[nH]c(SCC(=O)c3ccco3)nc2c1 | 31.6 µM (inconclusive) |  | AC50 (Cytochrome P450 2D6): 17.8 µM (inconclusive)
24 | Cc1ccc2sc(O)nc2c1 |  | 19.7 µM (active) | 
25 | O=C(CSCc1c(Cl)cccc1Cl)NCc1cccnc1 | 7.94 µM (inconclusive) |  | 
26 | CC(C(=O)Nc1ccc2c(c1)OCCO2)c1ccc([N+](=O)[O-])cc1 (stereo unspecified) |  |  | EC50 [2]: 10.7 µM (active)
27 | Cc1ccc(-c2ccc(/C=N/n3cnnc3)o2)cc1Cl |  | 49.7 µM (active) | 
28 | CCc1nnc(S)n1/N=C/c1ccc2c(c1)OCO2 | 35.5 µM (inconclusive) |  | AC50 (Cytochrome P450 2D6): 22.4 µM (inconclusive)
29 | CCN(CC)Cc1c(C(=O)N/N=C/c2cccc(OCc3cccc(Cl)c3)c2)nnn1-c1nonc1N |  | 18.3 µM (active) | 
